Measurements: US20120009271A1, “METHOD OF DISEASE-INDUCED AND RECEPTOR-MEDIATED STEM CELL NEUROPROTECTION” (MEDICAL COLLEGE OF GEORGIA, priority 2009, published 2012)
Entries after “also recorded” stand apart in the source; their conditions may differ.

What was measured:
[1] = system: OGD-exposed primary rat cells; experiment: Oxygen glucose deprivation (OGD) injury model, cell viability (Trypan blue and MTT assay); conditions: AECs 5,000 per well or melatonin 100 uM; 20,000 rat cells per well
Procedure: To reveal the neuroprotective effects of these stem cells, cultured primary rat cells (gestation age 18) were initially exposed to OGD and immediately thereafter stem cells or conditioned media (harvested from OGD-exposed stem cells over 7 days) were added. Parallel sister cultures included non-OGD exposed rat cells (positive control). Stem cell doses were varied at 0 (negative control), 2.5%, 5%, 10% or 25% of total cell population per well. After 3 hours of stem cell or conditioned media treatment, cell viability (Trypan blue and MTT assay) and ELISA were performed.
Cultured primary rat cells (gestation age 18) were initially exposed to the oxygen glucose deprivation (OGD) injury model (92% N2 and 8% O2 gas for 90 minutes), and immediately thereafter AECs, AMCs or conditioned media (harvested from AECs or AMCs cultured over 7 days) were added to the OGD-exposed cells. Parallel sister cultures included non-OGD exposed rat cells (positive control). Placenta cell doses were varied at 0 (negative control), 2.5%, 5%, 10% or 25% of total cell population per well. After 3 hours of placenta cell or conditioned media treatment, cell viability (Trypan blue and MTT assay) and ELISA were performed.
Cultured primary rat cells (gestation age 18; 20,0000 cells per well) were initially exposed to the OGD injury model (92% N2 and 8% 02 gas for 90 minutes). […]

[2] = in vivo; cited from earlier work
[3] = system: cultured human amniotic epithelial cells (AECs); experiment: Immunocytochemistry of proliferation and differentiation of cultured AECs with or without melatonin; assay type: cell-based
Text: This is true for both control cells and cells treated with melatonin.

[4] = system: cultured human amnion stem cells; experiment: Oxidative stress (H202) in cultured human amnion stem cells, cell survival (Hoechst 33258, trypan blue); assay type: cell-based; conditions: pre-treatment with melatonin 100 μM; H202 100 μM at day 4, survival at day 5; versus non-melatonin treated cells

Structure (SMILES): COc1ccc2[nH]cc(CCNC(C)=O)c2c1 [melatonin, N-acetyl-5-methoxytryptamine]
- neuroprotection against experimental stroke (OGD), single treatment [1]: exerted neuroprotection
- half life [2]: 30 to 53 min
- total TuJ1 positive cells in 5 fields (dendrite +/-) ([3]; 100 μM Melatonin versus control, FIG. 14A): increased the total number of cells expressing Tull
- total nestin positive or nestin/MelR1 positive cells in 5 fields ([3]; 100 μM Melatonin versus control, FIG. 14B): increases the total number of nestin positive or nestin/MelR1 positive expressing cells
- neural differentiation (TuJ1 and GFAP) of melatonin receptor 1-expressing AECs ([3]; melatonin in growth media): enhanced neural differentiation
- proliferation of melatonin receptor 1-expressing AECs ([3]; melatonin in growth media): dose-dependently suppressed proliferation
- cell survival after oxidative stress [4]: protected against cell death; also recorded: significantly greater
